For orientation: IC50 means the concentration that inhibits the measured activity by half. The term viability denotes a read-out of living cells in per cent, often relative to untreated cells.

These results are taken from patent US12459930B2, “Compounds for the inhibition of unregulated cell growth” (GODAVARI BIOREFINERIES LIMITED, priority 2018, dated 2025).

The subject of assay [1] is DU145 prostate cancer cell line. The experiment in a line: In vitro antiproliferative assay (MTT assay), DU145. The class given is cell-based. The settings on record: 48 hrs drug incubation, read-out: IC50 in micromolar, DU145 (MTT assay). On the procedure:
(§1) MTT assay is a simple and sensitive assay where, metabolic reducing activity of the cells is measured. The increase of this activity in time is taken as a parameter of cell growth. If treatment with a drug impairs this increase, the action is a consequence of growth inhibition, cell killing or both. […] All cell lines were cultured in a 37° C. incubator with a 5% CO2 environment. Compounds were dissolved in DMSO with a concentration of 0.1M (stock solution). Cells were seeded into 96-well plates at suitable plating efficiency.
(§2) Following plating efficiencies were standardized for MTT assay:
(§3) In the MTT procedure, the cells were plated in 96 well plates as per predetermined plating efficiency (Table1). The plates were then incubated for 24 hrs in 5% CO2 atmosphere at 37° C. Appropriate concentrations of the drugs were then added to the plate and further incubation was carried out for 48 hrs (in 5% CO2 atmosphere at 37° C.). The assay plate was then centrifuged twice at 3000 rpm for 3 mins and supernatant was then discarded. 100 ul of MTT solution (0.5 mg/ml) was then added to each well of the plate and it was further incubated for 4 hrs (in 5% CO2 atmosphere at 37° C.) Following 4 hr incubation, the plate was then centrifuged twice, and supernatant was aspirated off very carefully. 200 ul of DMSO was then added to each well to solubilize. MTT crystals and mixed well by shaking the plate. XY graph of log percent viability was then plotted against log drug concentration.
In general terms: Tetrazolium dyes change colour on reduction, which living cells bring about.

For assay [2], the system named is PC3 prostate cancer cell line. Briefly: Soft agar colony-formation assay, PC3. The settings on record: 1 week, Alamar Blue, read-out: IC50 in micromolar, PC3 (Soft Agar Assay). The format is cell-based. On the procedure:
(§4) The Soft Agar Colony-formation Assay is an anchorage-independent growth assay in soft agar, which is one of the most stringent assays for detecting malignant transformation of cells. For this assay, malignant cells are cultured with appropriate controls in soft agar medium for 1-2 weeks. Following this incubation period, formed colonies can either be analyzed morphologically using cell stain and quantifying the number of colonies formed.
(§5) Briefly, for Soft Agar Assay a mixture of 50 ul of 2× medium (taken appropriately as per cell line) and 50 ul of 1.2% Bacto Agar were plated on to each well of 96 well micro titer assay plate. 10 ul of cells (of specific plating efficiency pre standardized for respective cell line) were mixed with 20 ul of 2× medium and 30 ul of 0.8% of Bacto Agar and 1.6 ul of drug (of appropriate concentration) in a vial and transferred to the solidified pre layers of the assay plates. The cells were then allowed to grow and form colonies at 37° C. and 5% C02 for 1 week. An intermittent feeding with 50 ul of appropriate 2× medium was performed after 3 days of experimental set up. 16 ul of Alamar Blue (1.5 mg/ml) was then added to all the wells to quantify the developed colonies. The plates were incubated for 24 hrs at 37° C. Absorbance was then measured at 630 nm. XY graph of log Percent viability was then plotted against log drug concentration.
(§6) Following plating efficiencies were standardized for Soft Agar Assay: […]

For assay [3], the system named is MDAMB231 breast cancer cell line. The experiment in a line: Soft agar colony-formation assay, MDAMB231. The class given is cell-based. The settings on record: 1 week, Alamar Blue, read-out: IC50 in micromolar, MDAMB231 (Soft Agar Assay). On the procedure: as §4, §5, §6
Assay [4] has the same test system. The experiment in a line: In vitro antiproliferative assay (MTT assay), MDAMB231. The format is cell-based. The following applies: 48 hrs drug incubation, read-out: IC50 in micromolar, MDAMB231 (MTT assay). As to the method:
as §1, §2, §3

Assay [5] relates to PC3 spheres (cancer stem cells). Briefly: In vitro sphere-forming assay (cancer stem cells), PC3 in Prostosphere media. The settings on record: for 3D sphere count of PC3 in Prostosphere media: 2000 cells/well, n = 6 ± S.D; for viability at 0.025 µM: read-out: % Viability of spheres (PC3), 0.025 uM; for viability at 0.25 µM: read-out: % Viability of spheres (PC3), 0.25 uM; for viability at 2.5 µM: read-out: % Viability of spheres (PC3), 2.5 uM; for viability at 25 µM: read-out: % Viability of spheres (PC3), 25 uM; for viability at 0.0025 µM: read-out: % Viability of spheres (PC3), 0.0025 uM.

For assay [6], the system named is MDAMB231 spheres (cancer stem cells). The experiment in a line: In vitro sphere-forming assay (cancer stem cells), MDAMB231 in Mammosphere media. The settings on record: for 3D sphere count of MDAMB231 in Mammosphere media: 2000 cells/well, n = 6 ± S.D; for viability at 0.0025 µM / viability at 0.025 µM / viability at 0.25 µM / viability at 2.5 µM / viability at 25 µM: Homo sapiens, MDA-MB-231, read-out: % Viability of spheres (MDAMB231).

The subject of assay [7] is PC3 prostate cancer cell line. The experiment in a line: In vitro antiproliferative assay (MTT assay), PC3. The format is cell-based. The following applies: 48 h, 48 hrs drug incubation, read-out: IC50 in micromolar, PC3 (MTT assay). On the procedure:
as §1, §2, §3

Setting [8] is: Homo sapiens, MDA-MB-231, 168 h.

Structures can show the parent of a compound that is named as a salt. Where two headings read alike, the source gives them in different places.

With `CCOC(=O)N1CCN(CCCCCCOc2c3c(c(-c4ccc5c(c4)OCO5)c4cc(OC)c(OC)cc24)C(=O)OC3)CC1` [Formula IX, ethyl 4-(6-(9-(benzo[d][1,3]dioxol-5-yl)-1,3-dihydro-6,7-dimethoxy-1-oxonaphtho[2,3-c]furan-4-yloxy)hexyl)piperazine-1-carboxylate Hydrochloride], the 50% inhibitory concentration (IC50) in assay [1] (Homo sapiens, DU-145, 48 h) worked out at 10.7 µM; in assay [2] (168 h), 3.29 µM; in assay [3] (hydrochloride), 0.327 µM; in assay [4] (Homo sapiens, MDA-MB-231, 48 h), 10.9 µM.

`COc1cc2c(OCCCCN3CCOCC3)c3c(c(-c4ccc5c(c4)OCO5)c2cc1OC)C(=O)OC3` [Formula VI, 4-(4-morpholinobutoxy)-9-(benzo[d][1,3]dioxol-5-yl)-6,7-dimethoxynaphtho[2,3-c]furan-1(3H)-one]: the IC50 stood at 4.05 µM in assay [1], 2.65 µM in assay [2], 2.69 µM in assay [3] and 10.9 µM in assay [4]. Moreover, the “3D sphere count of PC3 in Prostosphere media” value (“3D sphere count of PC3” below) was 49(±2) in assay [5] (0.025 uM); 41(±2) in assay [5] (0.25 uM); 37(±2) in assay [5] (2.5 uM); 27(±2) in assay [5] (25 uM); 0(±0) in assay [5] (250 uM). Further, in assay [5] (GCD = 100% viability), the viability at 0.025 µM turned out to be 57%. In addition, the viability at 0.25 µM in assay [5] (GCD = 100% viability) is 48%. For the same compound, in assay [5] (GCD = 100% viability), the viability at 2.5 µM came to 43%. Besides, in assay [5] (GCD = 100% viability), the viability at 25 µM came out at 31%. In addition, the viability at 250 µM in assay [5] (read-out: % Viability of spheres (PC3), 250 uM, GCD = 100% viability) came out at 0%.

For the compound `O=C(CCCOc1ccc(-c2ccc3c(c2)OCO3)c2ccccc12)N1CCOCC1` [Formula XV, 4-(1-(benzo[d][1,3]dioxol-5-yl)naphthalen-4-yloxy)-1-morpholinobutan-1-one], the concentration for half-maximal inhibition (IC50) in assay [1] (Homo sapiens, DU-145, 48 h) was found to be 2.51 µM; in assay [2] (168 h), 3.06 µM; in assay [3] (setting [8]) it was 5.36 µM; in assay [7], 7.82 µM; in assay [4] (Homo sapiens, MDA-MB-231, 48 h) it was 4.95 µM. Further, the “3D sphere count of MDAMB231 in Mammosphere media” value (shortened to “3D sphere count of MDAMB231”) in assay [6] (0.0025 uM) is 53(±2); in assay [6] (0.025 uM) it was 51(±5); in assay [6] (0.25 uM) it was 40(±6); in assay [6] (2.5 uM) it was 31(±3); in assay [6] (25 uM) it was 16(±4). Moreover, the viability at 0.0025 µM in assay [6] was 64%. In assay [6], the viability at 0.025 µM stood at 62%. Moreover, the viability at 0.25 µM in assay [6] worked out at 49%. The viability at 2.5 µM in assay [6] worked out at 38%. Further, in assay [6], the viability at 25 µM amounted to 19%.

`c1cnc2c(OCCCCCCN3CCOCC3)ccc(-c3ccc4c(c3)OCO4)c2c1` [Formula XVI, 8-(6-morpholinohexyloxy)-5-(benzo[d][1,3]dioxol-5-yl)quinoline]: the concentration for half-maximal inhibition (IC50) amounted to 3.52 µM in assay [1] (Homo sapiens, DU-145, 48 h); 5.52 µM in assay [7]; 3.8 µM in assay [4] (Homo sapiens, MDA-MB-231, 48 h). In addition, the “3D sphere count of MDAMB231” value in assay [6] (0.0025 uM) was 61(±3); in assay [6] (0.025 uM), 51(±3); in assay [6] (0.25 uM), 42(±3); in assay [6] (2.5 uM), 37(±3); in assay [6] (25 uM), 22(±4). For the same compound, the viability at 0.0025 µM came out at 71% in assay [6] and 86% in assay [5] (GCD = 100% viability). Also, the viability at 0.025 µM in assay [6] came to 59%; in assay [5] (GCD = 100% viability), 63%. The viability at 0.25 µM in assay [6] is 49%; in assay [5] (GCD = 100% viability) it was 50%. The values for the viability at 2.5 µM in assay [6] and in assay [5] (GCD = 100% viability) were 43% and 40%, respectively. The viability at 25 µM in assay [6] was determined as 25%; in assay [5] (GCD = 100% viability) it was 30%. The “3D sphere count of PC3” value is listed as 72(±6) in assay [5] (0.0025 uM); 53(±4) in assay [5] (0.025 uM); 42(±4) in assay [5] (0.25 uM); 34(±3) in assay [5] (2.5 uM); 25(±4) in assay [5] (25 uM).

Turning to `c1cnc2c(OCCCCNC3CCCCC3)ccc(-c3ccc4c(c3)OCO4)c2c1` [Formula XVII, N-(4-(5-(benzo[d][1,3]dioxol-5-yl)quinolin-8-yloxy)butyl)cyclohexanamine], the half-inhibitory concentration (IC50) in assay [1] (Homo sapiens, DU-145, 48 h) is 1.99 µM; in assay [7], 2.82 µM; in assay [4] (Homo sapiens, MDA-MB-231, 48 h), 2.13 µM.

As to `c1cc2c(cc1-c1ccc(OCCN3CCOCC3)c3c1CCCC3)OCO2` [Formula XXI, 4-(2-(5-(benzo[d][1,3]dioxol-5-yl)-1,2,3,4-tetrahydronaphthalen-8-yloxy)ethyl) morpholine], the IC50 worked out at 4.26 µM in assay [1] (Homo sapiens, DU-145, 48 h); 2.75 µM in assay [2] (168 h); 4.34 µM in assay [3] (setting [8]); 3.86 µM in assay [7]; 4.2 µM in assay [4] (Homo sapiens, MDA-MB-231, 48 h). Also, the “3D sphere count of PC3” value is 62(±4) in assay [5] (0.0025 uM); 54(±2) in assay [5] (0.025 uM); 50(±2) in assay [5] (0.25 uM); 45(±3) in assay [5] (2.5 uM); 36(±2) in assay [5] (25 uM). Further, the viability at 0.0025 µM in assay [5] (GCD = 100% viability) was 78%. In assay [5] (GCD = 100% viability), the viability at 0.025 µM was 68%. Also, the viability at 0.25 µM in assay [5] (GCD = 100% viability) was 63%. Further, the viability at 2.5 µM in assay [5] (GCD = 100% viability) is 57%. For the same compound, the viability at 25 µM in assay [5] (GCD = 100% viability) was 45%.

Consider `C=CCNCCCCCCOc1ccc(-c2ccc3c(c2)OCO3)c2c1CCCC2` [Formula XXII, 6-(5-(benzo[d][1,3]dioxol-5-yl)-1,2,3,4-tetrahydronaphthalen-8-yloxy)-N-allylhexan-1-amine], for which the 50% inhibitory concentration (IC50) in assay [1] (Homo sapiens, DU-145, 48 h) is 1.48 µM; in assay [7] it was 2.45 µM; in assay [4] (Homo sapiens, MDA-MB-231, 48 h) it was 1.35 µM. Moreover, the “3D sphere count of MDAMB231” value in assay [6] (0.0025 uM) is 47(±3); in assay [6] (0.025 uM), 34(±3); in assay [6] (0.25 uM), 24(±4); in assay [6] (2.5 uM) it was 9(±2); in assay [6] (25 uM) it was 0(±0). The viability at 0.0025 µM was found to be 55% in assay [6] and 66% in assay [5] (GCD = 100% viability). The figures for the viability at 0.025 µM in assay [6] and in assay [5] (GCD = 100% viability) were 39% and 52%, respectively. The values for the viability at 0.25 µM in assay [6] and in assay [5] (GCD = 100% viability) were 28% and 43%, respectively. For the same compound, the results for the viability at 2.5 µM in assay [6] and in assay [5] (GCD = 100% viability) were 10% and 30%, respectively. In addition, the viability at 25 µM in assay [6] is 0%; in assay [5] (GCD = 100% viability) it was 17%. For the same compound, the “3D sphere count of PC3” value is 55(±3) in assay [5] (0.0025 uM); 44(±4) in assay [5] (0.025 uM); 36(±3) in assay [5] (0.25 uM); 25(±3) in assay [5] (2.5 uM); 14(±3) in assay [5] (25 uM).
